# Assays:
# [1] = molecular target: T1, V. radiata complex I (CI), NADH dehydrogenase site (Vigna radiata, UniProt A0A1S3V7V2); test: NADH-cytochrome c oxidoreductase activity of purified SC I + III2; format: biochemical; details: 10 µM NADH, 100 µM decylubiquinone, 100 µM equine cyt c, pH 7.4
# T1 construct: gene LOC106772405; native complex I, in purified supercomplex I + III2 (NADH) or in washed mitochondrial membranes (dNADH)
# [2] = molecular target: T2, V. radiata SC I + III2 (complex I, quinone-binding site) (Vigna radiata, UniProt A0A1S3U8J5+E9KZL0+E9KZN6); test: NADH-cytochrome c oxidoreductase activity, A550; format: biochemical; details: 20 mM HEPES pH 7.4, 50 mM NaCl, 10% glycerol, 100 µM decylubiquinone, 100 µM equine cyt c, 10 µM NADH, 4 μM KCN
# T2 construct: gene nad7; native complex I (14 core + 34 accessory subunits) in supercomplex I + III2, from etiolated hypocotyl mitochondria, digitonin-extracted, amphipol A8-35 stabilized, SEC purified; assayed as NADH-cyt c oxidoreductase; nad1 and NDUS2 transcripts RNA-edited
# T2 sequence (E9KZN6 entry or part of it): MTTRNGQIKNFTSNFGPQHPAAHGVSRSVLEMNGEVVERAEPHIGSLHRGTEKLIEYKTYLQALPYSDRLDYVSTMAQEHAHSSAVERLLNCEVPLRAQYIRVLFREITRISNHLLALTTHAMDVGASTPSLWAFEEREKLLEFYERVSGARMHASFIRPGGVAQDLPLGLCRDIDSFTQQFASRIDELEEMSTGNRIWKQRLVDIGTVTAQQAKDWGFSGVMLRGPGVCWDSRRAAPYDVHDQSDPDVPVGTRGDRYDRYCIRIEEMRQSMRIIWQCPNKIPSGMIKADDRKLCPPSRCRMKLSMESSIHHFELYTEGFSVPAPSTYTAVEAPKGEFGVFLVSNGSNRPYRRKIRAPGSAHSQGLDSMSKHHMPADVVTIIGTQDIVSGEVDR
# T2 sequence (E9KZL0 entry or part of it): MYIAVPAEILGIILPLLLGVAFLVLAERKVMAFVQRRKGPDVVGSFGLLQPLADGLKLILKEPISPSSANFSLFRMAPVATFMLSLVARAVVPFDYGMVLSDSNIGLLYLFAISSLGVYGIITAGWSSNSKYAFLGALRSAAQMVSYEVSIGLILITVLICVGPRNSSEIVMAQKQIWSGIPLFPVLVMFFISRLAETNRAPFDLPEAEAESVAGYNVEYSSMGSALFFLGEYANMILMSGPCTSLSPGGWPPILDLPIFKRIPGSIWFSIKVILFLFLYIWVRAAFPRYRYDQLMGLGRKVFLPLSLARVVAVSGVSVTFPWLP
# T2 sequence (A0A1S3U8J5 entry or part of it): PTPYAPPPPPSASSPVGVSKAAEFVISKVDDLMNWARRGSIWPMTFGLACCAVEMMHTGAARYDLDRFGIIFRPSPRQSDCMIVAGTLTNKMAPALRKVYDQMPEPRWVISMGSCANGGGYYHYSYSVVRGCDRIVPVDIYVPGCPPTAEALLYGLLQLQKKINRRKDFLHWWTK
# T1 sequence (A0A1S3V7V2 28-491): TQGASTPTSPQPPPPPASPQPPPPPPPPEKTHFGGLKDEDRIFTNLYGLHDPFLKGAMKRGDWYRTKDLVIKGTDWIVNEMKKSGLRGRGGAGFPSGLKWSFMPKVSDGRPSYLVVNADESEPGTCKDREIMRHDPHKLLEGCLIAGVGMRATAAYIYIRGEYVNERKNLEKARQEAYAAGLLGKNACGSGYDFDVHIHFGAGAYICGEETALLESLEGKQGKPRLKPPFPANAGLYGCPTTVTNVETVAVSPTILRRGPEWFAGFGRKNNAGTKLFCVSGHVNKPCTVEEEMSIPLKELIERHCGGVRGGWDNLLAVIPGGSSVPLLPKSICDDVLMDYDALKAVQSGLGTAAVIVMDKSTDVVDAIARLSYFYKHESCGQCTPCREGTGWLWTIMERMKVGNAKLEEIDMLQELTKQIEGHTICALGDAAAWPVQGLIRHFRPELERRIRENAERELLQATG
# T1 sequence (A0A1S3TQ85 32-746 partner): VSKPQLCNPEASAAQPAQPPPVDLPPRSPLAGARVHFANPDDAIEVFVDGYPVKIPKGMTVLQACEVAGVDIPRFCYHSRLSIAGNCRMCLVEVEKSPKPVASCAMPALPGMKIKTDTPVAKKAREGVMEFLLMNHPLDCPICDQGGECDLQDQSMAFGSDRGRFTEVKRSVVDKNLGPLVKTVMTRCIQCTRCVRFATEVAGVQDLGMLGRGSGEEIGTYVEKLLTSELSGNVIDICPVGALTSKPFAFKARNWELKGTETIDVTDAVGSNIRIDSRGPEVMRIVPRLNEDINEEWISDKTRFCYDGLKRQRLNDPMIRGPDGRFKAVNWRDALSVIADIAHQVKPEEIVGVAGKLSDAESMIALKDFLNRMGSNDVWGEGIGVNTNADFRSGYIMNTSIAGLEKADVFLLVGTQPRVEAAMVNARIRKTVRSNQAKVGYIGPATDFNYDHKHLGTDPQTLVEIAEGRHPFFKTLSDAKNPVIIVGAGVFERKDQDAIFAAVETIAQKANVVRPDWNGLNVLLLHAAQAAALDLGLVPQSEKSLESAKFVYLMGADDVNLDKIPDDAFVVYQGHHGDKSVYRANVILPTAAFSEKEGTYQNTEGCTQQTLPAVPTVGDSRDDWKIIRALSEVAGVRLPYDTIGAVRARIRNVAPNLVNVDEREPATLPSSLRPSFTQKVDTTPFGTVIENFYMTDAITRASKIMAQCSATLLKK
# T1 sequence (A0A1S3U769 25-251 partner): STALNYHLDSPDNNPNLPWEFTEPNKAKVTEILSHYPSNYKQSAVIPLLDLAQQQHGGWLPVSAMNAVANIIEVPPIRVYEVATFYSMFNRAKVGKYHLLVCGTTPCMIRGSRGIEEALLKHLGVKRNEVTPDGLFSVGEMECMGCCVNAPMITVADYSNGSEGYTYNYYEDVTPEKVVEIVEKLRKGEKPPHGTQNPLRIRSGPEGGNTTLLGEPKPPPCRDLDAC
SMILES,NADH-cytochrome c oxidoreductase activity of purified SC I + III2 [1],inhibition at 20 μM [2]
NC(=O)C1=CN([C@@H]2O[C@H](COP(=O)(O)OP(=O)(O)OC[C@H]3O[C@@H](n4cnc5c(N)ncnc54)[C@H](O)[C@@H]3O)[C@@H](O)[C@H]2O)C=CC1 [NADH],The final biochemical sample showed the expected NADH-cyt c oxidoreductase activity,
C/C=C(\C)[C@H](O)[C@H](C)/C=C(C)/C=C/C/C(C)=C/Cc1nc(OC)c(OC)c(O)c1C [piericidin A],,"inhibited by CI and CIII2 inhibitors piericidin A and antimycin A, respectively"

# Source: publication PMC9873571, “Plant-specific features of respiratory supercomplex I + III2 from Vigna radiata” (Nature Plants, 2022)
